Measurements reported in patent publication US20230322724A1, “HETEROCYCLIC COMPOUNDS AS CBP/EP300 BROMODOMAIN INHIBITORS” (AURIGENE ONCOLOGY LIMITED, priority 2020, published 2023).
pIC50: −log10 of the molar value.

Molecular target: T1, recombinant BRD4 FL bromodomain (Homo sapiens, UniProt O60885)
T1 construct: fused on or other part: 6xHis tag, inferred from detection with Mab ANTI 6HIS-XL665
Experiment: BRD4 FL TR-FRET displacement assay
Type: binding
Conditions: BRD4 FL, compound at 10 μM
Protocol: The potency of compounds to inhibit BRD4 FL enzyme was tested in a TR-FRET displacement assay using recombinant BRD4 FL bromodomain obtained In-house. The assay buffer was 50 mM HEPES (pH 7.5), 50 mM NaCl, 500 μM CHAPS. 10 nM of BRD4 FL & 300 nM of Biotinylated Acetyl histone H4 (Lys 5, 8, 12, 16) (Millipore, USA) was incubated at room temperature for 30 minutes, the reaction was initiated by adding the pre-incubated enzyme ligand mixture to the test compounds. After 30 min incubation, the reaction was stopped by the addition of stop mix containing 1 nM of Europium Streptavidin cryptate (Cisbio, USA) and 5 nM of Mab ANTI 6HIS-XL665 (Cisbio, USA) dilutes in assay buffer containing 2.4M Potassium Fluoride. Fluorescence emission of the samples at 665 and 615 nm were measured at an excitation of 340 nm and their ratio was plotted against the compound concentrations to generate dose-response curve. The percent inhibition of the test compounds is calculated using the ratio of enzyme activity controls.
Selected compounds of the present invention were screened in the above-mentioned assay procedures and IC50 values were determined by fitting the dose-response data to sigmoidal curve fitting equation using Graph pad prism software V7.

Row | Compound | % Inhibition (10 μM) [%]
1 | COc1cc(N2CCCc3ccc(S(=O)(=O)NC(C)=O)cc32)c2cc(C)c(=O)n(C)c2c1 [Example 199, N-((T-methoxy-1′,3′-dimethyl-2′-oxo-1′,2′,3,4-tetrahydro-2H-[1,5′-biquinolin]-7 yl)sulfonyl)acetamide] | 45

Same assay, conditions: BRD4 FL, compound at 10 μM; read-out: % Inhibition (10 μM)

Row | Compound | inhibition at 10 µM [%]
2 | COc1cc(N2CCN(C)c3cc(N4CCCC(NC(C)=O)C4)ncc32)c2cc(C)c(=O)n(C)c2c1 (stereo not shown) [Example 122] | 33
3 | Cc1cc2c(N3CCN(C)c4cc(C5CCOC5)ncc43)cc(N3CCOCC3)cc2n(C)c1=O (stereo not shown) [Example 137] | 26
4 | Cc1cc2c(N3CCN(C)c4cc(N5CCCCC5)ncc43)cc(N3CCOCC3)cc2n(C)c1=O [Example 139] | 43

Same assay, conditions: BRD4 FL, dose-response; read-out: IC50 (group A, B, C)

Row | Compound | pIC50
5 | Cc1cc2c(N3CCN(C)c4cc(-c5cnn(C)c5)ncc43)cc(N3CCCC(C#N)C3)cc2n(C)c1=O (stereo not shown) [Example 149] | 5.30 to 5.70
6 | Cc1cc2c(N3CCN(C)c4ccc(S(N)(=O)=O)cc43)cc(N3CC[C@@H](O)C3)cc2n(C)c1=O [Example 92, (R)-4-(7-(3-Hydroxypyrrolidin-1-yl)-1,3-dimethyl-2-oxo-1,2-dihydroquinolin-5-yl)-1-methyl-1,2,3,4-tetrahydroquinoxaline-6-sulfonamide] | 5.30 to 5.70
7 | Cc1cc2c(N3CCN(C)c4cc(C5CC5)ncc43)cc(N3CCOCC3)cc2n(C)c1=O [Example 138] | 5.30 to 5.70
8 | COc1cc(N2CCN(C)c3cc(N4CCN(C(C)=O)CC4)ncc32)c2cc(C)c(=O)n(C)c2c1 [Example 119] | 5.30 to 5.70
9 | CNC(=O)c1ccc(-c2cc3c(cc2C(F)F)N(c2nc(N4CCOCC4)cc4c2cc(C)c(=O)n4C)CCC3)cn1 [Example 203] | 5.30 to 5.70

Molecular target: T2, recombinant CREBBP bromodomain (Homo sapiens, UniProt Q92793)
T2 construct: recombinant CREBBP bromodomain obtained from BPS Bioscience, USA; purchased BPS Bioscience, USA
Experiment: CBP TR-FRET displacement assay
Type: binding
Conditions: compound at 10 μM
Protocol: The potency of compounds to inhibit CREBBP enzyme was tested in a TR-FRET displacement assay using recombinant CREBBP bromodomain obtained from BPS Bioscience, USA. The assay buffer was 50 mM HEPES (pH 7.5), 50 mM NaCl, 0.008% Brij 35, 0.01% BSA, 1 mM TCEP. 50 nM of CREBBP & 500 nM of Biotinylated ligand was incubated at room temperature for 30 minutes, the reaction was initiated by adding pre-incubated enzyme ligand mixture to the test compounds. After 60 min incubation, the reaction was stopped by the addition of stop mix containing 1 nM of LANCE Europium-anti-6xHis antibody (Perkin Elmer, USA) and 40 nM of Sure Light Allophycocyanin-Streptavidin (Perkin Elmer, USA). Fluorescence emission of the samples at 665 and 615 nm were measured at an excitation of 340 nm and their ratio was plotted against the compound concentrations to generate dose-response curve. The percent inhibition of the test compounds is calculated using the ratio of enzyme activity controls.
elected compounds of the present invention were screened in the above-mentioned assay procedures and IC50 values were determined by fitting the dose-response data to sigmoidal curve fitting equation using Graph pad prism software V7.

T2 sequence (Q92793 1085-1192 limits assumed): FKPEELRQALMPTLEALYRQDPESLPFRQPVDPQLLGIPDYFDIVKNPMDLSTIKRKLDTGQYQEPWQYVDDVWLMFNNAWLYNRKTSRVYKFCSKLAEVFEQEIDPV

Row | Compound | inhibition at 10 µM [%]
10 | Cc1cc2c(N3CCc4ccc(-c5cnn(C)c5)cc4C3)cccc2n(C)c1=O [Example 190] | 52
11 | COc1cc(N2CCN(C)c3cc(N4CCCCC4=O)ncc32)c2cc(C)c(=O)n(C)c2c1 [Example 126] | 46
12 | CCc1cc2c(N3CCN(C)c4cc(-c5cnn(C)c5)c(C#N)cc43)cccc2[nH]c1=O [Example 50] | 90
13 | COc1cc(N2CCN(C)c3ccc(S(C)(=N)=O)cc32)c2cc(C)c(=O)n(C)c2c1 (stereo not shown) [Example 101] | 27
14 | COc1cc2c(cc1-c1cnn(C)c1)CCCN2c1cccc2[nH]c(=O)c(C)cc12 [Example 188] | 25

Same assay, conditions: compound at 10 μM, 10 µM

Row | Compound | % Inhibition (10 μM) [%]
15 | Cc1cc2c(N3CCN(C)c4cc(-c5cnn(C)c5)c(C#N)cc43)cc(OCC3CCCN(C)C3)cc2n(C)c1=O (single isomer, unassigned) [Example 248, 4-(1,3-Dimethyl-7-((1-methylpiperidin-3-yl)methoxy)-2-oxo-1,2-dihydroquinolin-5-yl)-1-methyl-7-(1-methyl-1H-pyrazol-4-yl)-1,2,3,4-tetrahydroquinoxaline-6-carbonitrile] | 100

Same assay, conditions: dose-response, read-out: IC50 (group A, B, C)

Row | Compound | pIC50
16 | Cc1cc2c(N3CCCc4cc(N5CCC(C)(N)CC5)c(C(F)F)cc43)nc(C3CCOCC3)cc2n(C)c1=O [Example 237] | > 7.30
17 | Cc1cc2c(N3CCCc4cc(-c5cnn(C)c5)c(C(F)F)cc43)nc(N3CCC(C)(N)CC3)cc2n(C)c1=O [Example 222] | > 7.30
18 | COc1cc2c(cc1-c1cnn(C)c1)CCCN2c1nc(N2CCC(O)C2)cc2c1cc(C)c(=O)n2C (stereo not shown) [Example 232] | 7.00 to 7.29
19 | Cc1cc2c(N3CCCc4cc(N5CC(C)NC(C)C5)c(C(F)F)cc43)nc(C3CCOCC3)cc2n(C)c1=O (stereo not shown) [Example 236] | > 7.30
20 | COc1cc(N2CCN(C(C)=O)c3cc(-c4cnn(C)c4)c(C#N)cc32)c2cc(C)c(=O)n(C)c2c1 [Example 63, 1-acetyl-4-(7-methoxy-1,3-dimethyl-2-oxo-1,2-dihydroquinolin-5-yl)-7-(1-methyl-1H-pyrazol-4-yl)-1,2,3,4-tetrahydroquinoxaline-6-carbonitrile] | 7.00 to 7.29
21 | Cc1cc2c(N3CCN(C)c4cc(-c5cnn(C)c5)c(C#N)cc43)cncc2n(C)c1=O [Example 53] | > 7.30
22 | COc1cc(N2CCN(C)c3ccc([S+](C)[O-])cc32)c2cc(C)c(=O)n(C)c2c1 (stereo not shown) [Example 99] | 7.00 to 7.29
23 | CC(=O)N1CCN(CCOc2cc(N3CCN(C)c4cc(-c5cnn(C)c5)c(C#N)cc43)c3cc(C)c(=O)n(C)c3c2)CC1 [Example 61, 4-(7-(2-(4-Acetylpiperazin-1-yl)ethoxy)-1,3-dimethyl-2-oxo-1,2-dihydroquinolin-5-yl)-1-methyl-7-(1-methyl-1H-pyrazol-4-yl)-1,2,3,4-tetrahydroquinoxaline-6-carbonitrile] | > 7.30
24 | Cc1cc2c(N3CCCc4cc(-c5cnn(C)c5)c(C(F)F)cc43)nc(N3CCN(C)CC3)cc2n(C)c1=O [Example 223] | > 7.30
25 | COc1cc(N2CCCc3ccc(C(F)F)cc32)c2cc(C)c(=O)n(C)c2c1 [Example 175] | < 8.00
26 | COc1cc(N2CCN(C)c3ccc(S(=O)(=O)NC(=O)C(C)(C)C)cc32)c2cc(C)c(=O)n(C)c2c1 [Example 111] | < 8.00
27 | COc1cc(N2CCN(C)c3ccc(-c4nn[nH]n4)cc32)c2cc(C)c(=O)n(C)c2c1 [Example 84, 7-Methoxy-1,3-dimethyl-5-(4-methyl-7-(2H-tetrazol-5-yl)-3,4-dihydroquinoxalin-1(2H)-yl)quinolin-2(1H)-one] | > 7.30
28 | COc1cc(N2CCCc3cc(N4CCN(C(C)=O)CC4)ccc32)c2cc(C)c(=O)n(C)c2c1 [Example 185] | < 8.00
29 | COc1cc(N2CCN(C)c3ccc(S(=O)(=O)N(C)C)cc32)c2cc(C)c(=O)n(C)c2c1 [Example 93, 4-(7-Methoxy-1,3-dimethyl-2-oxo-1,2-dihydroquinolin-5-yl)-N,N,1-trimethyl-1,2,3,4-tetrahydroquinoxaline-6-sulfonamide] | 7.00 to 7.29
30 | CNC(=O)N1CCN(c2cccc3c2cc(C)c(=O)n3C)c2ccc(-c3cnn(C)c3)cc21 [Example 75, 4-(1,3-Dimethyl-2-oxo-1,2-dihydroquinolin-5-yl)-N-methyl-7-(1-methyl-1H-pyrazol-4-yl)-3,4-dihydroquinoxaline-1(2H)-carboxamide] | < 8.00
31 | CNC(=O)C1CCN(c2ccc3c(c2)CCCN3c2cc(OC)cc3c2cc(C)c(=O)n3C)CC1 [Example 187] | < 8.00
32 | Cc1cc2c(N3CCN(C)c4cc(C5=CCN(C)CC5)ccc43)cccc2n(C)c1=O [Example 44] | < 8.00
33 | Cc1cc2c(N3CCCc4cc(-c5cnn(C)c5)c(C(F)F)cc43)cc(N3CC[C@@H](O)C3)cc2n(C)c1=O [Example 177] | 7.00 to 7.29
34 | Cc1cc2c(N3CCN(C)c4ccc(S(N)(=O)=O)cc43)cc(OC(F)F)cc2n(C)c1=O [Example 97] | < 8.00
35 | CC(=O)NS(=O)(=O)c1ccc2c(c1)N(c1cc(N3CC[C@@H](O)C3)cc3c1cc(C)c(=O)n3C)CCN2C [Example 105] | > 7.30
36 | COc1cc(N2CCN(C)c3cc(C4CC4)c(S(=O)(=O)NC(C)=O)cc32)c2cc(C)c(=O)n(C)c2c1 [Example 109] | > 7.30
37 | CCS(=O)(=O)N1CCN(c2cccc3c2cc(C)c(=O)n3C)c2ccc(-c3cnn(C)c3)cc21 [Example 74, 5-(4-(Ethylsulfonyl)-6-(1-methyl-1H-pyrazol-4-yl)-3,4-dihydroquinoxalin-1(2H)-yl)-1,3-dimethylquinolin-2(1H)-one] | < 8.00

Further lines, results first:

Row | pIC50 | Compound
38 | < 8.00 | Cc1cc2c(N3CCN(C)c4cc(-c5cnn(C)c5)[n+]([O-])cc43)cc(N3CCOCC3)cc2n(C)c1=O [Example 160, 4-(1,3-Dimethyl-7-morpholino-2-oxo-1,2-dihydroquinolin-5-yl)-1-methyl-7-(1-methyl-1H-pyrazol-4-yl)-1,2,3,4-tetrahydropyrido[3,4-b]pyrazine 6-oxide]
39 | > 7.30 | Cc1cc2c(N3CCN(C)c4cc(-c5ccsc5)ncc43)cc(N3CCOCC3)cc2n(C)c1=O [Example 140]
40 | > 7.30 | COc1cc(N2CCN(C)c3cc(N4CCC(NC(C)=O)CC4)c(C#N)cc32)c2cc(C)c(=O)n(C)c2c1 [Example 56]
41 | > 7.30 | CNC(=O)C1CCN(c2cc3c(cc2F)N(c2cc(N4CCOCC4)cc4c2cc(C)c(=O)n4C)CCN3C)CC1 [Example 49]
42 | 7.00 to 7.29 | COc1cc(N2CCN(C)c3cc(C(F)(F)F)ncc32)c2cc(C)c(=O)n(C)c2c1 [Example 124]
43 | 7.00 to 7.29 | Cc1cc2c(N3CCN(C)c4cc(-c5cnn(C)c5)ncc43)cc(C3CCOCC3)cc2n(C)c1=O [Example 143]
